Values of other authors, collected in paper PMC3693451 (Bioorganic & medicinal chemistry letters, 2011).
pKi: −log10 of the molar value.

Tests used:
[1] = target: CB receptors; settings: read-out: Ki at both CB receptors
[2] = tested on: CB receptors
[3] = tested on: chronic neuropathic and inflammatory pain; settings: rat
[4] = target: human CB1; settings: read-out: human CB1 Ki
[5] = tested on: rat CB1, human CB1 and human CB2 receptors
[6] = 214 targets

O=S(=O)(CCCC(F)(F)F)Oc1cccc(Oc2cccc3c2C[C@H](CO)C3)c1 [BAY 38–7271, (−)-(R)-3-(2-hydroxymethylindanyl-4-oxy)phenyl-4,4,4-trifluoro-1-sulfonate]
neuroprotective properties: pronounced neuroprotective properties | pKi [1]: 8.73 to 9.34 | agonist type at both CB receptors [2]: full agonist

N#Cc1c(Oc2cccc(OS(=O)(=O)CCCC(F)(F)F)c2)cccc1C(F)(F)F [BAY 59–3074]
effect in chronic neuropathic and inflammatory pain models [3]: pronounced antihyperalgesic and antiallodynic properties | pKi [4]: 7.32 | agonist properties in [35S]GTPγS binding assays [5]: partial agonist | selectivity for CB receptors in target screen [6]: no significant interactions with other targets
